Assay results as given in patent US20260166128A1, “HUMAN AMYLIN ANALOG, AND DERIVATIVE THEREOF AND USE THEREOF” (priority 2022, published 2026).
Numbered stars: 1 amine (or outer) side, 2 acyl side, 3 side chain; on linkers, the order of the positions; unused ones are H or OH. Bridge positions count the residues as written; N and C are the ends. Square brackets hold non-standard residues; d marks the D form. Peptide text beside a SMILES is read from it. * marks the point of attachment. C20 diacid = O=C(O)CCCCCCCCCCCCCCCCCCC(=O)*; γGlu = O=C(O)[C@H](CCC(=O)[*:2])N[*:1]; Dab = NCC[C@H](N)C(=O)O; Dap = NC[C@H](N)C(=O)O

Biological target: T1, human amylin receptor (Homo sapiens, UniProt O60896+P30988)
T1 construct: host or cells: CHO-K1/Ga15/AMY3 cells, further stably transfected with a CRE-luciferase plasmid
T1 sequence (P30988 25-474): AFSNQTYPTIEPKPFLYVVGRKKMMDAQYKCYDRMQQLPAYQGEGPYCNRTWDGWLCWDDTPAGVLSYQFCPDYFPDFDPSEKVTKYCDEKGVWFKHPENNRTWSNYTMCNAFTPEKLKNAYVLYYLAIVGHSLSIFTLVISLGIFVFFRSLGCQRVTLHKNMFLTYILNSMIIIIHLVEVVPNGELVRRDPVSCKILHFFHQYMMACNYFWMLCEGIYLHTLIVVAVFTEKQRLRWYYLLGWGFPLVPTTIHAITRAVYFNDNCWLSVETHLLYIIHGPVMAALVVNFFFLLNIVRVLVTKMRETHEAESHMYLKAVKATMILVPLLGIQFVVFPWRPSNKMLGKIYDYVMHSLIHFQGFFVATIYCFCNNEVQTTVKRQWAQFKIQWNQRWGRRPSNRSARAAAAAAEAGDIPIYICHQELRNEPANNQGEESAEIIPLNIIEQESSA
T1 sequence (O60896 24-148 partner): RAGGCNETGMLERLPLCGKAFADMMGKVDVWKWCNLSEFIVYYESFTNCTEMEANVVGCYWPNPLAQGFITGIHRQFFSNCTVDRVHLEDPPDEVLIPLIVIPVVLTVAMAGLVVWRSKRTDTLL
Assay: Luciferase assay of amylin derivatives in amylin receptor/CRE-luc CHO cell line
Type: cell-based
Details: CHO-K1/Ga15/AMY3 CRE-luc cells, 24 hours incubation, F12 medium containing 10% FBS; read-out: EC50
Procedure: The experiment was intended to detect the activity or efficacy of the amylin derivatives on a human amylin receptor in vitro by luciferase assay.
50 μL of growth medium (F12 medium containing 10% FBS) was added into each well of a white 96-well plate, and the stably transfected amylin/CRE-lue CHO cells were inoculated into the white 96-well plate at a density of about 20,000 cells/well for activity determination.

EC50 [nM]	Compound
0.035	CC[C@H](C)[C@H](NC(=O)[C@@H]1CCCN1C(=O)[C@H](Cc1c[nH]cn1)NC(=O)[C@H](CC(C)C)NC(=O)[C@H](CC(N)=O)NC(=O)[C@H](CC(N)=O)NC(=O)[C@H](CO)NC(=O)[C@H](CO)NC(=O)[C@H](Cc1c[nH]cn1)NC(=O)[C@H](CCCNC(=N)N)NC(=O)[C@H](CC(C)C)NC(=O)[C@H](Cc1ccccc1)NC(=O)[C@H](CC(=O)O)NC(=O)[C@H](C)NC(=O)[C@H](CC(C)C)NC(=O)[C@H](CCCNC(=N)N)NC(=O)[C@H](CCC(N)=O)NC(=O)[C@@H](NC(=O)[C@H](C)NC(=O)[C@@H]1CSSC[C@H](NC(=O)[C@H](CCCCN)NC(=O)CC[C@H](NC(=O)CCCCCCCCCCCCCCCCCCC(=O)O)C(=O)O)C(=O)N[C@@H](CC(N)=O)C(=O)N[C@@H]([C@@H](C)O)C(=O)N[C@@H](C)C(=O)N[C@@H]([C@@H](C)O)C(=O)N1)[C@@H](C)O)C(=O)N[C@@H](CC(C)C)C(=O)N1CCC[C@H]1C(=O)N1CCC[C@H]1C(=O)N[C@H](C(=O)N[C@@H](CC(N)=O)C(=O)N[C@H](C(=O)NCC(=O)N[C@@H](CO)C(=O)N[C@@H](CC(N)=O)C(=O)N[C@H](C(=O)N1CCC[C@H]1C(N)=O)[C@@H](C)O)C(C)C)[C@@H](C)O [PD162] ({C20 diacid-γGlu}-KCNTATCATQRLADFLRHSSNNLHPILPPTNVGSNTP-NH2; disulfide 2-7 (inferred))
0.084	CC[C@H](C)[C@H](NC(=O)[C@@H]1CCCN1C(=O)[C@@H]1CCCN1C(=O)[C@H](CC(C)C)NC(=O)[C@H](CC(N)=O)NC(=O)[C@H](CC(N)=O)NC(=O)[C@H](CO)NC(=O)[C@H](CO)NC(=O)[C@H](Cc1c[nH]cn1)NC(=O)[C@H](CCCNC(=N)N)NC(=O)[C@H](CC(C)C)NC(=O)[C@H](Cc1ccccc1)NC(=O)[C@H](CC(=O)O)NC(=O)[C@H](C)NC(=O)[C@H](CC(C)C)NC(=O)[C@H](CCCNC(=N)N)NC(=O)[C@H](CCC(N)=O)NC(=O)[C@@H](NC(=O)[C@H](C)NC(=O)[C@@H]1CSSC[C@H](NC(=O)[C@H](CCCCN)NC(=O)CC[C@H](NC(=O)CCCCCCCCCCCCCCCCCCC(=O)O)C(=O)O)C(=O)N[C@@H](CC(N)=O)C(=O)N[C@@H]([C@@H](C)O)C(=O)N[C@@H](C)C(=O)N[C@@H]([C@@H](C)O)C(=O)N1)[C@@H](C)O)C(=O)N[C@@H](CC(C)C)C(=O)N1CCC[C@H]1C(=O)N1CCC[C@H]1C(=O)N[C@H](C(=O)N[C@@H](CC(N)=O)C(=O)N[C@H](C(=O)NCC(=O)N[C@@H](CO)C(=O)N[C@@H](CC(N)=O)C(=O)N[C@H](C(=O)N1CCC[C@H]1C(N)=O)[C@@H](C)O)C(C)C)[C@@H](C)O [PD163] ({C20 diacid-γGlu}-KCNTATCATQRLADFLRHSSNNLPPILPPTNVGSNTP-NH2; disulfide 2-7 (inferred))
0.111	CC[C@H](C)[C@H](NC(=O)[C@@H]1CCCN1C(=O)[C@H](CC(=O)O)NC(=O)[C@H](CC(C)C)NC(=O)[C@H](CC(N)=O)NC(=O)[C@H](CC(N)=O)NC(=O)[C@H](CO)NC(=O)[C@H](CO)NC(=O)[C@H](Cc1c[nH]cn1)NC(=O)[C@H](CCCNC(=N)N)NC(=O)[C@H](CC(C)C)NC(=O)[C@H](Cc1ccccc1)NC(=O)[C@H](CC(=O)O)NC(=O)[C@H](C)NC(=O)[C@H](CC(C)C)NC(=O)[C@H](CCCNC(=N)N)NC(=O)[C@H](CCC(N)=O)NC(=O)[C@@H](NC(=O)[C@H](C)NC(=O)[C@@H]1CSSC[C@H](NC(=O)[C@H](CCCCN)NC(=O)CC[C@H](NC(=O)CCCCCCCCCCCCCCCCCCC(=O)O)C(=O)O)C(=O)N[C@@H](CC(N)=O)C(=O)N[C@@H]([C@@H](C)O)C(=O)N[C@@H](C)C(=O)N[C@@H]([C@@H](C)O)C(=O)N1)[C@@H](C)O)C(=O)N[C@@H](CC(C)C)C(=O)N1CCC[C@H]1C(=O)N1CCC[C@H]1C(=O)N[C@H](C(=O)N[C@@H](CC(N)=O)C(=O)N[C@H](C(=O)NCC(=O)N[C@@H](CO)C(=O)N[C@@H](CC(N)=O)C(=O)N[C@H](C(=O)N1CCC[C@H]1C(N)=O)[C@@H](C)O)C(C)C)[C@@H](C)O [PD164] ({C20 diacid-γGlu}-KCNTATCATQRLADFLRHSSNNLDPILPPTNVGSNTP-NH2; disulfide 2-7 (inferred))
0.05	CC[C@H](C)[C@H](NC(=O)[C@@H]1CCCN1C(=O)[C@H](CC(N)=O)NC(=O)[C@H](CC(C)C)NC(=O)[C@H](CC(N)=O)NC(=O)[C@H](CC(N)=O)NC(=O)[C@H](CO)NC(=O)[C@H](CO)NC(=O)[C@H](Cc1c[nH]cn1)NC(=O)[C@H](CCCNC(=N)N)NC(=O)[C@H](CC(C)C)NC(=O)[C@H](Cc1ccccc1)NC(=O)[C@H](CC(=O)O)NC(=O)[C@H](C)NC(=O)[C@H](CC(C)C)NC(=O)[C@H](CCCNC(=N)N)NC(=O)[C@H](CCC(N)=O)NC(=O)[C@@H](NC(=O)[C@H](C)NC(=O)[C@@H]1CSSC[C@H](NC(=O)[C@H](CCCCN)NC(=O)CC[C@H](NC(=O)CCCCCCCCCCCCCCCCCCC(=O)O)C(=O)O)C(=O)N[C@@H](CC(N)=O)C(=O)N[C@@H]([C@@H](C)O)C(=O)N[C@@H](C)C(=O)N[C@@H]([C@@H](C)O)C(=O)N1)[C@@H](C)O)C(=O)N[C@@H](CC(C)C)C(=O)N1CCC[C@H]1C(=O)N1CCC[C@H]1C(=O)N[C@H](C(=O)N[C@@H](CC(N)=O)C(=O)N[C@H](C(=O)NCC(=O)N[C@@H](CO)C(=O)N[C@@H](CC(N)=O)C(=O)N[C@H](C(=O)N1CCC[C@H]1C(N)=O)[C@@H](C)O)C(C)C)[C@@H](C)O [PD165] ({C20 diacid-γGlu}-KCNTATCATQRLADFLRHSSNNLNPILPPTNVGSNTP-NH2; disulfide 2-7 (inferred))
0.054	CC[C@H](C)[C@H](NC(=O)[C@@H]1CCCN1C(=O)[C@H](CO)NC(=O)[C@H](CC(C)C)NC(=O)[C@H](CC(N)=O)NC(=O)[C@H](CC(N)=O)NC(=O)[C@H](CO)NC(=O)[C@H](CO)NC(=O)[C@H](Cc1c[nH]cn1)NC(=O)[C@H](CCCNC(=N)N)NC(=O)[C@H](CC(C)C)NC(=O)[C@H](Cc1ccccc1)NC(=O)[C@H](CC(=O)O)NC(=O)[C@H](C)NC(=O)[C@H](CC(C)C)NC(=O)[C@H](CCCNC(=N)N)NC(=O)[C@H](CCC(N)=O)NC(=O)[C@@H](NC(=O)[C@H](C)NC(=O)[C@@H]1CSSC[C@H](NC(=O)[C@H](CCCCN)NC(=O)CC[C@H](NC(=O)CCCCCCCCCCCCCCCCCCC(=O)O)C(=O)O)C(=O)N[C@@H](CC(N)=O)C(=O)N[C@@H]([C@@H](C)O)C(=O)N[C@@H](C)C(=O)N[C@@H]([C@@H](C)O)C(=O)N1)[C@@H](C)O)C(=O)N[C@@H](CC(C)C)C(=O)N1CCC[C@H]1C(=O)N1CCC[C@H]1C(=O)N[C@H](C(=O)N[C@@H](CC(N)=O)C(=O)N[C@H](C(=O)NCC(=O)N[C@@H](CO)C(=O)N[C@@H](CC(N)=O)C(=O)N[C@H](C(=O)N1CCC[C@H]1C(N)=O)[C@@H](C)O)C(C)C)[C@@H](C)O [PD166] ({C20 diacid-γGlu}-KCNTATCATQRLADFLRHSSNNLSPILPPTNVGSNTP-NH2; disulfide 2-7 (inferred))
0.041	CC[C@H](C)[C@H](NC(=O)[C@@H]1CCCN1C(=O)[C@H](CN)NC(=O)[C@H](CC(C)C)NC(=O)[C@H](CC(N)=O)NC(=O)[C@H](CC(N)=O)NC(=O)[C@H](CO)NC(=O)[C@H](CO)NC(=O)[C@H](Cc1c[nH]cn1)NC(=O)[C@H](CCCNC(=N)N)NC(=O)[C@H](CC(C)C)NC(=O)[C@H](Cc1ccccc1)NC(=O)[C@H](CC(=O)O)NC(=O)[C@H](C)NC(=O)[C@H](CC(C)C)NC(=O)[C@H](CCCNC(=N)N)NC(=O)[C@H](CCC(N)=O)NC(=O)[C@@H](NC(=O)[C@H](C)NC(=O)[C@@H]1CSSC[C@H](NC(=O)[C@H](CCCCN)NC(=O)CC[C@H](NC(=O)CCCCCCCCCCCCCCCCCCC(=O)O)C(=O)O)C(=O)N[C@@H](CC(N)=O)C(=O)N[C@@H]([C@@H](C)O)C(=O)N[C@@H](C)C(=O)N[C@@H]([C@@H](C)O)C(=O)N1)[C@@H](C)O)C(=O)N[C@@H](CC(C)C)C(=O)N1CCC[C@H]1C(=O)N1CCC[C@H]1C(=O)N[C@H](C(=O)N[C@@H](CC(N)=O)C(=O)N[C@H](C(=O)NCC(=O)N[C@@H](CO)C(=O)N[C@@H](CC(N)=O)C(=O)N[C@H](C(=O)N1CCC[C@H]1C(N)=O)[C@@H](C)O)C(C)C)[C@@H](C)O [PD168] ({C20 diacid-γGlu}-KCNTATCATQRLADFLRHSSNNL[Dap]PILPPTNVGSNTP-NH2; disulfide 2-7 (inferred))
0.039	CC[C@H](C)[C@H](NC(=O)[C@@H]1CCCN1C(=O)[C@H](CCN)NC(=O)[C@H](CC(C)C)NC(=O)[C@H](CC(N)=O)NC(=O)[C@H](CC(N)=O)NC(=O)[C@H](CO)NC(=O)[C@H](CO)NC(=O)[C@H](Cc1c[nH]cn1)NC(=O)[C@H](CCCNC(=N)N)NC(=O)[C@H](CC(C)C)NC(=O)[C@H](Cc1ccccc1)NC(=O)[C@H](CC(=O)O)NC(=O)[C@H](C)NC(=O)[C@H](CC(C)C)NC(=O)[C@H](CCCNC(=N)N)NC(=O)[C@H](CCC(N)=O)NC(=O)[C@@H](NC(=O)[C@H](C)NC(=O)[C@@H]1CSSC[C@H](NC(=O)[C@H](CCCCN)NC(=O)CC[C@H](NC(=O)CCCCCCCCCCCCCCCCCCC(=O)O)C(=O)O)C(=O)N[C@@H](CC(N)=O)C(=O)N[C@@H]([C@@H](C)O)C(=O)N[C@@H](C)C(=O)N[C@@H]([C@@H](C)O)C(=O)N1)[C@@H](C)O)C(=O)N[C@@H](CC(C)C)C(=O)N1CCC[C@H]1C(=O)N1CCC[C@H]1C(=O)N[C@H](C(=O)N[C@@H](CC(N)=O)C(=O)N[C@H](C(=O)NCC(=O)N[C@@H](CO)C(=O)N[C@@H](CC(N)=O)C(=O)N[C@H](C(=O)N1CCC[C@H]1C(N)=O)[C@@H](C)O)C(C)C)[C@@H](C)O [PD169] ({C20 diacid-γGlu}-KCNTATCATQRLADFLRHSSNNL[Dab]PILPPTNVGSNTP-NH2; disulfide 2-7 (inferred))
